# Data taken from PubChem BioAssay AID256 (DTP/NCI, 2004).
# Values joined by “and” are separate entries in the source; they are usually repeats but may differ in a detail not shown here. Identical values can stand only once. Inconclusive results and toxic doses are left out.
# Tested on: CD2F1 mice, L1210 leukemia ip, survival T/C
# Experiment: NCI In Vivo Anticancer Drug Screen. Data for tumor model L1210 Leukemia (intraperitoneal) in CD2F1 (CDF1) mice
# Details: endpoint: mean survival time, higher = longer survival
# In short: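 Mice carrying a transplanted tumor received test compound or vehicle alone. The value is the measurement in the treated group divided by that in the vehicle-treated control group.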
# [1] = dose: 100.0 mg/kg/injection, schedule: Q01DX001 (ip), vehicle: other
# [2] = dose: 200.0 mg/kg/injection, schedule: Q01DX001 (ip), vehicle: other
# [3] = dose: 400.0 mg/kg/injection, schedule: Q01DX001 (ip), vehicle: other
# [4] = dose: 6.25 mg/kg/injection, schedule: Q01DX009 (ip), vehicle: saline with Tween-80
# [5] = dose: 12.5 mg/kg/injection, schedule: Q01DX009 (ip), vehicle: saline with Tween-80
# [6] = dose: 100.0 mg/kg/injection, schedule: Q01DX001 (ip), vehicle: saline with Tween-80
# [7] = dose: 200.0 mg/kg/injection, schedule: Q01DX001 (ip), vehicle: saline with Tween-80
# [8] = dose: 400.0 mg/kg/injection, schedule: Q01DX001 (ip), vehicle: saline with Tween-80
# [9] = dose: 50.0 mg/kg/injection, schedule: Q04DX003 (ip), vehicle: saline with Tween-80
# [10] = dose: 100.0 mg/kg/injection, schedule: Q01DX009 (ip), vehicle: saline with Tween-80
# [11] = dose: 100.0 mg/kg/injection, schedule: Q04DX003 (ip), vehicle: saline with Tween-80
# [12] = dose: 200.0 mg/kg/injection, schedule: Q01DX009 (ip), vehicle: saline with Tween-80
# [13] = dose: 200.0 mg/kg/injection, schedule: Q04DX003 (ip), vehicle: saline with Tween-80
# [14] = dose: 400.0 mg/kg/injection, schedule: Q04DX003 (ip), vehicle: saline with Tween-80
# [15] = dose: 400.0 mg/kg/injection, schedule: Q01DX009 (ip), vehicle: saline with Tween-80
# [16] = dose: 100.0 mg/kg/injection, schedule: Q04DX003 (ip), vehicle: saline
# [17] = dose: 200.0 mg/kg/injection, schedule: Q04DX003 (ip), vehicle: saline
# [18] = dose: 400.0 mg/kg/injection, schedule: Q04DX003 (ip), vehicle: saline
compound,measurement,setting,value
C[NH-].C[NH-].[Cl][Pt+2][Cl],T/C,"dose: 2.5 mg/kg/injection, schedule: Q04DX003 (ip), vehicle: water",91 % of control
same,T/C,"dose: 5.0 mg/kg/injection, schedule: Q04DX003 (ip), vehicle: water",120 % of control
same,T/C,"dose: 10.0 mg/kg/injection, schedule: Q04DX003 (ip), vehicle: water",92 % of control
c1ccc(C2NNC(c3ccccc3)NN2)cc1 (configuration not stated),T/C,[1],100 % of control
same,T/C,[2],97 % of control
same,T/C,[3],92 % of control
CC1=[C-]C=CS1=O.[C-]#[O+].[C-]#[O+].[C-]#[O+].[Mo].[c-]1[c-][c-][cH-][c-]1 (configuration not stated),T/C,"dose: 9.38 mg/kg/injection, schedule: Q04DX002 (ip), vehicle: saline with Tween-80",96 % of control
same,T/C,"dose: 18.7 mg/kg/injection, schedule: Q04DX002 (ip), vehicle: saline with Tween-80",96 % of control
same,T/C,"dose: 37.5 mg/kg/injection, schedule: Q04DX002 (ip), vehicle: saline with Tween-80",100 % of control
O=C(CCc1ccc(O)cc1)ON1C(=O)CCC1=O,T/C,"dose: 50.0 mg/kg/injection, schedule: Q01DX009 (ip), vehicle: Klucel (hydroxypropylcellulose) (HPC)",105 % of control
NC(N)=Nc1nc(N)nc(N)n1,T/C,"dose: 3.13 mg/kg/injection, schedule: Q01DX009 (ip), vehicle: saline with Tween-80",104 % of control
same,T/C,[4],107 % of control
same,T/C,[5],104 % of control and 110 % of control
CC(c1ccccc1)n1cncc1C(=O)NN(C)C (configuration not stated),T/C,[6],96 % of control
same,T/C,[7],93 % of control
same,T/C,[8],91 % of control
Cc1ccccc1C(O)(c1ccccc1C)c1ccccc1C,T/C,"dose: 100.0 mg/kg/injection, schedule: Q04DX003 (ip), vehicle: acetone",96 % of control
same,T/C,"dose: 200.0 mg/kg/injection, schedule: Q04DX003 (ip), vehicle: acetone",98 % of control
same,T/C,"dose: 400.0 mg/kg/injection, schedule: Q04DX003 (ip), vehicle: acetone",98 % of control
CNC(=S)C(=S)NC,T/C,[4],100 % of control
same,T/C,[5],97 % of control
same,T/C,"dose: 25.0 mg/kg/injection, schedule: Q01DX009 (ip), vehicle: saline with Tween-80",95 % of control
same,T/C,[9],93 % of control
CC1(C)CCCC2(C)C(OCCO)=CC(=O)C=C12 (configuration not stated),T/C,"dose: 100.0 mg/kg/injection, schedule: Q04DX003 (ip), vehicle: saline sonified",96 % of control
same,T/C,"dose: 200.0 mg/kg/injection, schedule: Q04DX003 (ip), vehicle: saline sonified",98 % of control
same,T/C,"dose: 400.0 mg/kg/injection, schedule: Q04DX003 (ip), vehicle: saline sonified",96 % of control
O=[N+]([O-])c1ccc(Sc2ccc(Cl)cc2)cc1,T/C,[1],95 % of control
same,T/C,[10],98 % of control
same,T/C,[11],104 % of control
same,T/C,[2],102 % of control
same,T/C,[12],98 % of control
same,T/C,[13],95 % of control
same,T/C,[3],107 % of control
same,T/C,[14],103 % of control
OCC12OCC(O1)C(O)C(O)C2O (configuration not stated),T/C,"dose: 100.0 mg/kg/injection, schedule: Q01DX009 (ip), vehicle: saline",97 % of control
same,T/C,"dose: 200.0 mg/kg/injection, schedule: Q01DX009 (ip), vehicle: saline",103 % of control
same,T/C,"dose: 400.0 mg/kg/injection, schedule: Q01DX009 (ip), vehicle: saline",98 % of control
COP1(=S)OCC2OC(n3cc(C)c(=O)[nH]c3=O)CC2O1 (configuration not stated),T/C,"dose: 12.5 mg/kg/injection, schedule: Q01DX005 (ip), vehicle: distilled water + Tween-80",101 % of control
same,T/C,"dose: 25.0 mg/kg/injection, schedule: Q01DX005 (ip), vehicle: distilled water + Tween-80",102 % of control
same,T/C,"dose: 50.0 mg/kg/injection, schedule: Q01DX005 (ip), vehicle: distilled water + Tween-80",102 % of control
same,T/C,"dose: 100.0 mg/kg/injection, schedule: Q01DX005 (ip), vehicle: distilled water + Tween-80",102 % of control
same,T/C,"dose: 200.0 mg/kg/injection, schedule: Q01DX005 (ip), vehicle: distilled water + Tween-80",98 % of control
Cc1ccc(N=Nc2c(N)nc(N)[nH]c2=O)cc1C,T/C,[10],97 % of control
same,T/C,[12],97 % of control
same,T/C,[15],99 % of control
[Br][Pt+2][Br].[NH-]C(CC([NH-])c1ccccc1)c1ccccc1 (configuration not stated),T/C,"dose: 12.5 mg/kg/injection, schedule: Q04DX003 (ip), vehicle: saline with Tween-80",101 % of control and 107 % of control and 112 % of control
same,T/C,"dose: 25.0 mg/kg/injection, schedule: Q04DX003 (ip), vehicle: saline with Tween-80",102 % of control and 89 % of control
same,T/C,[9],91 % of control
c1ccc2c(NCCCCCCCCNc3c4ccccc4nc4ccccc34)c3ccccc3nc2c1,T/C,"dose: 1.25 mg/kg/injection, schedule: Q01DX009 (ip), vehicle: Klucel (hydroxypropylcellulose) (HPC)",120 % of control
same,T/C,"dose: 2.5 mg/kg/injection, schedule: Q01DX009 (ip), vehicle: Klucel (hydroxypropylcellulose) (HPC)",114 % of control and 100 % of control
same,T/C,"dose: 5.0 mg/kg/injection, schedule: Q01DX009 (ip), vehicle: Klucel (hydroxypropylcellulose) (HPC)",119 % of control and 120 % of control and 111 % of control
same,T/C,"dose: 10.0 mg/kg/injection, schedule: Q01DX009 (ip), vehicle: Klucel (hydroxypropylcellulose) (HPC)",109 % of control and 111 % of control
same,T/C,"dose: 20.0 mg/kg/injection, schedule: Q01DX009 (ip), vehicle: Klucel (hydroxypropylcellulose) (HPC)",117 % of control
O=C(OCCO)c1oc2ccccc2c1OCCO,T/C,[6],98 % of control
same,T/C,[7],98 % of control
same,T/C,[8],102 % of control
O=C(CC(Cl)c1ccccc1)c1ccccc1 (configuration not stated),T/C,[10],91 % of control
same,T/C,[11],94 % of control
same,T/C,[12],96 % of control
same,T/C,[13],98 % of control
same,T/C,[15],91 % of control
same,T/C,[14],90 % of control
O=c1cn[nH]c2c(Br)cc(Br)cc12,T/C,[11],103 % of control
same,T/C,[13],97 % of control
same,T/C,[14],97 % of control
CC1CN(Br)C(=O)N(Br)C1=O (configuration not stated),T/C,"dose: 75.0 mg/kg/injection, schedule: Q01DX001 (ip), vehicle: saline",102 % of control
same,T/C,"dose: 150.0 mg/kg/injection, schedule: Q01DX001 (ip), vehicle: saline",100 % of control
CC(=O)CCCSCCO,T/C,[16],101 % of control
same,T/C,[17],97 % of control
same,T/C,[18],101 % of control
N=C(N)c1ccc(OCCCCOc2ccc(NC(=O)Nc3cc(S(=O)(=O)F)ccc3Cl)cc2)cc1,T/C,"dose: 75.0 mg/kg/injection, schedule: Q01DX001 (ip), vehicle: saline with Tween-80",95 % of control
same,T/C,"dose: 150.0 mg/kg/injection, schedule: Q01DX001 (ip), vehicle: saline with Tween-80",90 % of control
same,T/C,"dose: 300.0 mg/kg/injection, schedule: Q01DX001 (ip), vehicle: saline with Tween-80",95 % of control
Cc1ccc(NC(=O)N(CCCl)N=O)cc1,T/C,"dose: 9.0 mg/kg/injection, schedule: Q01DX015 (ip), vehicle: saline",189 % of control
same,T/C,"dose: 15.0 mg/kg/injection, schedule: Q01DX015 (ip), vehicle: saline",193 % of control
same,T/C,"dose: 25.0 mg/kg/injection, schedule: Q01DX015 (ip), vehicle: saline",87 % of control
COC(=O)C(O)C(O)C(O)C(O)C(O)CO (configuration not stated),T/C,"dose: 100.0 mg/kg/injection, schedule: Q01DX001 (ip), vehicle: saline",95 % of control
same,T/C,"dose: 200.0 mg/kg/injection, schedule: Q01DX001 (ip), vehicle: saline",98 % of control
same,T/C,"dose: 400.0 mg/kg/injection, schedule: Q01DX001 (ip), vehicle: saline",96 % of control
CN1CC(=O)C(=N)C1=S,T/C,[6],90 % of control
same,T/C,[7],93 % of control
same,T/C,[8],90 % of control
CC1CCCCC1O (configuration not stated),T/C,"dose: 50.0 mg/kg/injection, schedule: Q01DX001 (ip), vehicle: carboxymethylcellulose (CMC)",97 % of control
same,T/C,"dose: 50.0 mg/kg/injection, schedule: Q01DX009 (ip), vehicle: saline with Tween-80",103 % of control
same,T/C,"dose: 100.0 mg/kg/injection, schedule: Q01DX001 (ip), vehicle: carboxymethylcellulose (CMC)",108 % of control
same,T/C,[10],103 % of control
same,T/C,[16],103 % of control
same,T/C,"dose: 200.0 mg/kg/injection, schedule: Q01DX001 (ip), vehicle: carboxymethylcellulose (CMC)",92 % of control
same,T/C,[12],95 % of control
same,T/C,[17],103 % of control
same,T/C,"dose: 400.0 mg/kg/injection, schedule: Q01DX001 (ip), vehicle: carboxymethylcellulose (CMC)",100 % of control
same,T/C,[18],95 % of control
